Among the data in patent US10351575B2, “Bicyclic urea, thiourea, guanidine and cyanoguanidine compounds useful for the treatment of pain” (Array BioPharma Inc., priority 2012, dated 2019) are IC50 values, retold here.

pIC50: −log10 of the molar value.

As usually defined, the pIC50 is the IC50 on a negative log10 scale, so that one unit is a factor of ten.

Sequence of His-tagged recombinant human TrkA (P04629 440-796): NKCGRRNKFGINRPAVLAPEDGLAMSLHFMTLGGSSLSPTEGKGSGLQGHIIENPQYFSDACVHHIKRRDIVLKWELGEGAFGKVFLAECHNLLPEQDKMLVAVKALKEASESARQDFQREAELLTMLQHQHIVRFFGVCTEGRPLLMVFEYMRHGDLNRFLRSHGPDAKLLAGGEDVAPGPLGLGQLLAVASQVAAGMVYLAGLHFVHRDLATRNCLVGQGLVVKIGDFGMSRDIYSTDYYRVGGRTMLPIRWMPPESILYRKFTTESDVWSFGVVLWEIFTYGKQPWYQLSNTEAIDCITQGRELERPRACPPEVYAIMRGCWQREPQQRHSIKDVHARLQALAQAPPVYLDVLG

The target of the test is His-tagged recombinant human TrkA (Homo sapiens (Human), UniProt P04629). In words: TrkA LanthaScreen Eu Kinase Binding Assay. The note with it: averaged IC50; TR-FRET binding, 60 min, 22° C.; read-out: TrkA Enzyme IC50. The gist of the method:
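TR-FRET binding: 5 nM His-tagged human TrkA cytoplasmic domain with 4 nM Alexa-Fluor Tracer 236, 2 nM biotin anti-His and 2 nM Eu-streptavidin. Buffer was 25 mM MOPS pH 7.5, 5 mM MgCl2, 0.005% Triton X-100, 2% DMSO, 60 min at 22° C. IC50 from a four-parameter fit of ratiometric percent of control.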
As to `Cc1c(-c2cnn(C)c2)nn(-c2ccccc2)c1NC(=O)N[C@H]1CCCc2ccccc21` [Example 2, (S)-1-(1′,4-dimethyl-1-phenyl-1H,1′H-3,4′-bipyrazol-5-yl)-3-(1,2,3,4-tetrahydronaphthalen-1-yl)urea], the pIC50 is over 7.00.
`Cc1c(-c2cnn(C)c2)nn(-c2ccccc2)c1NC(=O)NC1CCOc2cc(F)ccc21` (stereo not drawn) [Example 12, 1-(1′,4-dimethyl-1-phenyl-1H,1′H-[3,4′-bipyrazol]-5-yl)-3-(7-fluorochroman-4-yl)urea]: the negative logarithm of the IC50 (pIC50) is over 7.00.
For the compound `COCc1ccc2c(c1)C(NC(=O)Nc1c(C)c(-c3cnn(C)c3)nn1-c1ccccc1)COC2` (stereo not drawn) [Example 32, 1-(1′,4-dimethyl-1-phenyl-1H,1′H-[3,4′-bipyrazol]-5-yl)-3-(6-(methoxymethyl)isochroman-4-yl)urea], the pIC50 was over 7.00.
